{"source": "patent US11083717B2", "about": "“Compositions and methods for drug sensitization of parasites” (The Texas A&M University System, priority 2015, dated 2021)", "key": {"[1]": {"experiment": "Plasma pharmacokinetics in mouse", "type": "in vivo, female Balb/c mouse", "settings": "for AUC(0-t): read-out: AUC0-24 (converted)", "method": "To investigate the relationship between anticryptosporidial activity and systemic exposure the plasma pharmacokinetics for NZ-369 were measured. […] The pharmacokinetics of NZ-369 following single intravenous (IV) and oral administration (PO) at 3 and 10 mg free base/kg respectively to the female Balb/c mouse."}, "Cryptosporidium parvum": {"test_system": "Cryptosporidium parvum", "method": "The anticryptosporidial activity of the in vitro inhibitors was assessed in the IL-12 knockout mouse model that resembles the acute human disease (Ehigiator H N, Romagnoli P, Borgelt K, Fernandez M, McNair N, Secor W E, Mead J R. 2005. Mucosal cytokine and antigen-specific responses to Cryptosporidium parvum in IL-12p40 KO mice. Parasite Immunol. 27: 17-28; Campbell L D, Stewart J N, Mead J R. 2002. Susceptibility to Cryptosporidium parvum infections in cytokine- and chemokine-receptor knockout mice. J. Parasitol. 88:1014-1016). The protocol was approved by the Institutional Animal Care and Use Committees of Emory University, the AtlantaVAMedical Center, and Brandeis University. Mice (6 to 10 per group) were inoculated with 1,000 purified CP oocysts (Iowa isolate, from cattle). Treatment by gavage began 4 h postinfection with either vehicle (5% dimethyl sulfoxide (DMSO) in canola oil), 50-100 mg/kg compound, or 2,000 mg/kg paromomycin. Compounds were given for 7 days, and mice were sacrificed on day 8 (peak infection). Parasite load was quantified by fluorescence-activated cell sorting (FACS) assays for the presence of the oocysts in the feces at days 0, 4, and 7. Fecal pellets from individual mice were routinely collected daily and homogenized in adjusted volumes of 2.5% potassium dichromate. Samples were processed individually. Aliquots (200 ul) of vortexed samples were processed over microscale sucrose gradients as previously described (Arrowood M J, Hurd M R, Mead J R. 1995. A new method for evaluating experimental cryptosporidial parasite loads using immunofluorescent flowcytometry. J. Parasitol. 81:404-409). The oocyst-containing fraction was collected, washed, and treated with monoclonal antibody (OW5O-FITC) for 20 min. Samples were adjusted to 600 ul, and a portion (100 ul) was assayed with a 102-s sampling interval using logical gating of forward/side scatter and OW5O-FITC fluorescence signal on a Becton, Dickinson FACScan flow cytometer. Flow cytometry data were evaluated by analysis of variance (KaleidaGraph (Synergy Software, Reading Pa.); Microsoft Excel (Microsoft Corporation, Redmond, Wash.)).\nNZ-366 (50 mg/kg) and NZ-369 (100 mg/kg) were administered via gavage in a single daily dose to IL-12 knockout mice that were infected with 1,000 CP oocysts. Additional control groups included those treated with single daily doses of vehicle, and paromomycin (Prm) (2,000 mg/kg), by oral gavage."}, "[2]": {"settings": "female, Balb/c, mouse, plasma, 3 mg/kg, IV 3 mg free base/kg, single dose"}, "[3]": {"settings": "female, Balb/c, mouse, plasma, 10 mg/kg, PO 10 mg free base/kg, single dose"}, "[4]": {"settings": "NZ-366 50 mg/kg, NZ-369 100 mg/kg, paromomycin 2,000 mg/kg"}}, "note": "Like-named read-outs stand apart in the source and are kept apart here.", "data": [{"smiles": "CNC(=O)C(C)c1ccc(Oc2nc3ccc(Cl)cc3s2)cc1", "note": "(centres unmarked) [NZ-369, 2-{4-[(6-chloro-1,3-benzothiazol-2-yl)oxy]phenyl}-N-methylpropanamide]", "values": [{"measurement": "Clb", "setting": "[1]; IV 3 mg free base/kg, single dose", "value": 6.6, "unit": "mL/min/kg"}, {"measurement": "half-life", "setting": "[1]; [2]", "value": 3.4, "unit": "h"}, {"measurement": "AUC(0-t)", "setting": "[1]; [2]", "value": 7540, "unit": "ng·h/mL"}, {"measurement": "Vd", "setting": "[1]; female, Balb/c, mouse, plasma, 3 mg/kg, IV 3 mg free base/kg, single dose, read-out: Vdss", "value": 1.7, "unit": "L/kg"}, {"measurement": "Cmax", "setting": "[1]; [3]", "value": 2160, "unit": "ng/mL"}, {"measurement": "Tmax", "setting": "[1]; [3]", "value": 2, "unit": "h"}, {"measurement": "AUC(0-t)", "setting": "[1]; [3]", "value": 19800, "unit": "ng·h/mL"}, {"measurement": "bioavailability", "setting": "[1]; female, Balb/c, mouse, plasma, 10 mg/kg, printed in the IV column, PO 10 vs IV 3 mg free base/kg", "value": 78.8, "unit": "%"}, {"measurement": "systemic pharmacokinetics (in words)", "setting": "[1]; plasma", "value": "excellent systemic pharmacokinetics"}, {"measurement": "Mouse Model (Mead) DPI7", "setting": "Cryptosporidium parvum; @100 mg/kg, day 7 post infection", "value": "DPI7 = 70%"}, {"measurement": "overt toxicity in the treated infected mice", "setting": "Cryptosporidium parvum; NZ-366 50 mg/kg, NZ-369 100 mg/kg, 7 days", "value": "no overt toxicity"}, {"measurement": "anticryptosporidial activity, fecal oocysts day 7 post infection", "setting": "Cryptosporidium parvum; NZ-366 50 mg/kg, NZ-369 100 mg/kg, gavage, single daily dose, FIG. 1", "value": "have anticryptosporidial activity"}, {"measurement": "effectiveness compared with paromomycin after a single dose", "setting": "Cryptosporidium parvum; [4]", "value": "more effective than paromomycin"}, {"measurement": "effectiveness compared with paromomycin over the course of the study", "setting": "Cryptosporidium parvum; [4]", "value": "equally as effective as paromomycin"}]}]}
